# Source: patent US4693999A, “Liposomes containing steroid esters” (priority 1984, dated 1987)
# Where two headings read alike, the source gives them in different places.
# Columns and labels:
# [1] = test system: Sephadex-included lung edema; experiment: Sephadex-induced lung edema in rats (anti-inflammatory effect), glucocorticoid in liposomes instilled into left lung lobe; assay type: in vivo, Sprague Dawley rats; conditions: for inhibition in vivo at 3.35 µmol/kg / inhibition in vivo at 0.335 µmol/kg / inhibition in vivo at 0.0335 µmol/kg / inhibition in vivo at 0.1 µmol/kg: Rattus norvegicus; for inhibition in vivo at 3.35 µmol/kg: 3350 nmol/kg instilled in left lung lobe; for reduction of edema in left lung / protection of left lung / block of left lung edema (in words) / activity in the other lung half (in words): summary of Table 1; for reduction of edema in left lung / protection of left lung / block of left lung edema (in words): locally treated left lung; for activity in the other lung half (in words): right lung compared with left; for inhibition in vivo at 0.0335 µmol/kg: 33.5 nmol/kg instilled in left lung lobe; for inhibition in vivo at 0.1 µmol/kg: 100 nmol/kg instilled in left lung lobe
# From the text: (§1) Intratracheal instillation of Sephadex beads into rats leads to bronchial and also to alveolar inflammation. This provokes interstitial lung edema, which increases the lung weight, and the inflammation can be graded as the increase of the lung weight compared to a saline-instilled control group. The lung edema formation can be counteracted by pretreatment with glucocorticoids, preferably by local administration as intratracheal instillation or as inhalation. Ideally an anti-inflammatory action should be obtained only at the site of glucocorticoid application in the lung, but not in the rest of the body as this in long term treatment can lead to therapy limiting systemic side effects.
# The differentiation between glucocorticoid actions in the treated lung region and outside this area can be tested in the following way.
# (§2) Sprague Dawley rats (225 g) were slightly anaesthetized with ether and the glucocorticoid test preparation (in liposomes suspended in saline) in a volume of 0.5 ml/kg was instilled into just the left lung lobe. Two h later a suspension of Sephadex (5 mg/kg in a volume of […] was instilled in the trachea well above the bifurcation so that the suspension reached both the left and right lung lobes. Twenty h later the rats were killed and the left and right lung lobes dissected out and weighed separately. Also the spleen weight and the body weight gain over the 20 h were determined. Control groups got vehicle instead of glucocorticoid preparation and saline instead of Sephadex suspension to determine the weight of non-drug treated Sephadex edema and the normal lung weight as well as the normal spleen weight and body weight gain.
# As stated above an ideal glucocorticoid preparation should have a very high glucocorticoid activity at the site of application in lung, but with low activity outside this area. Therefore, in the selected model an optimal preparation should more or less completely block the edema in the locally pretreated left lung lobe, but have much less activity in the right lung half and no significant inhibitory action on the spleen weight and the body weight gain. […] In the test protocol used, doses were selected leading to a more or less complete block of the edema in the left lung and at these dose levels the extent of the other activities was estimated. At the selected dose 7-9 rats were tested in parallel.
# [2] = Spleen weight and body weight gain in the Sephadex lung edema test (systemic glucocorticoid action); assay type: in vivo, Sprague Dawley rats; set-up: Body weight gain in rel. to control: unit not given here; conditions: for Body weight gain in rel. to control: over 20 h; for % inhib. compared to control group, spleen: spleen weight, 20 h after Sephadex; for reduction of body weight gain (in words) / reduction of spleen (in words): summary of Table 1
# From the text: as §1, §2
# As stated above an ideal glucocorticoid preparation should have a very high glucocorticoid activity at the site of application in lung, but with low activity outside this area. Therefore, in the selected model an optimal preparation should more or less completely block the edema in the locally pretreated left lung lobe, but have much less activity in the right lung half and no significant inhibitory action on the spleen weight and the body weight gain. It has been considered more important to search for a high degree of separation between the local activity (exemplified with the left lung) to the other activities than to search for a high absolute potency (high activity per mg drug) for the action in the left lung. In the test protocol used, doses were selected leading to a more or less complete block of the edema in the left lung and at these dose levels the extent of the other activities was estimated. At the selected dose 7-9 rats were tested in parallel. Mean±s.e.m. was calculated and compared with Student's t-test to the results of the corresponding Sephadex control group.
# [3] = liposomes in saline, 2 h before Sephadex, 20 h readout, locally treated lobe, read-out: % inhib. compared to control group, left lobe
# [4] = liposomes in saline, 2 h before Sephadex, 20 h readout, untreated lobe, read-out: % inhib. compared to control group, right lobe
# [5] = 3350 nmol/kg instilled in left lung lobe, NS = not significant
# [6] = 20 h, read-out: % inhib. compared to control group, left lobe
# [7] = 20 h, read-out: % inhib. compared to control group, right lobe
# [8] = 335 nmol/kg instilled in left lung lobe, NS = not significant
# [9] = 335 nmol/kg instilled in left lung lobe, liposomes in saline, 2 h before Sephadex, 20 h readout, locally treated lobe, read-out: % inhib. compared to control group, left lobe
# [10] = 335 nmol/kg instilled in left lung lobe, liposomes in saline, 2 h before Sephadex, 20 h readout, untreated lobe, read-out: % inhib. compared to control group, right lobe
# [11] = 33.5 nmol/kg instilled in left lung lobe, NS = not significant
# [12] = 100 nmol/kg instilled in left lung lobe
compound,measurement,setting,value
CCCCCCCCCCCCCCCC(=O)OCC(=O)[C@@]1(OC(=O)CC)[C@@H](C)C[C@H]2[C@@H]3CCC4=CC(=O)C=C[C@]4(C)[C@@]3(Cl)[C@@H](O)C[C@@]21C [Beclomethasone-21-palmitate-17-propionate],inhibition in vivo at 3.35 µmol/kg,[1]; [3],87%
same,inhibition in vivo at 3.35 µmol/kg,[1]; [4],47%
same,reduction of edema in left lung / protection of left lung,[1],87%
same,Body weight gain in rel. to control,[2]; [5],-3.1
same,"% inhib. compared to control group, spleen",[2]; [5],5%
CCCCCCCCCCCCCCCC(=O)OCC(=O)[C@@]1(O)[C@@H](C)C[C@H]2[C@@H]3CCC4=CC(=O)C=C[C@]4(C)[C@@]3(F)[C@@H](O)C[C@@]21C [Betamethasone-21-palmitate],inhibition in vivo at 0.335 µmol/kg,[1]; [6],109%
same,inhibition in vivo at 0.335 µmol/kg,[1]; [7],-5%
same,Body weight gain in rel. to control,[2]; [8],0.2
same,"% inhib. compared to control group, spleen",[2]; [8],7%
CCCCCCCCCCCCCCCC(=O)OCC(=O)[C@@]12OC(CCC)O[C@@H]1C[C@H]1[C@@H]3CCC4=CC(=O)C=C[C@]4(C)[C@H]3[C@@H](O)C[C@@]12C (some centres unmarked) [Budesonide-21-palmitate],inhibition in vivo at 0.335 µmol/kg,[1]; [9],100%
same,inhibition in vivo at 0.335 µmol/kg,[1]; [10],37%
same,Body weight gain in rel. to control,[2]; [8],-1.4
same,"% inhib. compared to control group, spleen",[2]; [8],4%
CCCCC(=O)OCC(=O)[C@@]12OC(CCC)O[C@@H]1C[C@H]1[C@@H]3CCC4=CC(=O)C=C[C@]4(C)[C@H]3[C@@H](O)C[C@@]12C (some centres unmarked) [Budesonide-21-valerate],inhibition in vivo at 0.335 µmol/kg,[1]; [9],21%
same,inhibition in vivo at 0.335 µmol/kg,[1]; [10],22%
same,reduction of edema in left lung / protection of left lung,[1],up to 38%
same,Body weight gain in rel. to control,[2]; [8],-0.8
same,"% inhib. compared to control group, spleen",[2]; [8],-1%
CCCC1O[C@@H]2C[C@H]3[C@@H]4CCC5=CC(=O)C=C[C@]5(C)[C@H]4[C@@H](O)C[C@]3(C)[C@]2(C(=O)CO)O1 (some centres unmarked) [Budesonide],inhibition in vivo at 0.335 µmol/kg,[1]; [9],38%
same,inhibition in vivo at 0.335 µmol/kg,[1]; [10],30%
same,reduction of edema in left lung / protection of left lung,[1],up to 38%
same,Body weight gain in rel. to control,[2]; [8],1.6
CCCCCCCCCCCCCCCC(=O)OCC(=O)[C@@]1(OC(=O)CC)[C@H](C)C[C@H]2[C@@H]3CCC4=CC(=O)C=C[C@]4(C)[C@@]3(F)[C@@H](O)C[C@@]21C [Dexamethasone-21-palmitate-17-propionate],inhibition in vivo at 0.335 µmol/kg,[1]; [9],104%
same,inhibition in vivo at 0.335 µmol/kg,[1]; [10],44%
same,Body weight gain in rel. to control,[2]; [8],1.0
same,"% inhib. compared to control group, spleen",[2]; [8],3%
CCCCCCCCCCCCCCCC(=O)OCC(=O)[C@@]1(O)[C@H](C)C[C@H]2[C@@H]3CCC4=CC(=O)C=C[C@]4(C)[C@@]3(F)[C@@H](O)C[C@@]21C [Dexamethasone-21-palmitate],inhibition in vivo at 0.335 µmol/kg,[1]; [6],127%
same,inhibition in vivo at 0.335 µmol/kg,[1]; [7],109%
same,block of left lung edema (in words),[1],completely blocked the left lung edema
same,activity in the other lung half (in words),[1],as high activity in the other lung half
same,Body weight gain in rel. to control,[2]; [8],-10.8
same,reduction of body weight gain (in words),[2],significant reduction of body weight gain
same,reduction of spleen (in words),[2],significant reduction of body weight gain and to spleen
CCCCCCCCCCCCCCCC(=O)OCC(=O)[C@@]1(OC(=O)CC)[C@H](C)C[C@H]2[C@@H]3C[C@H](F)C4=CC(=O)C=C[C@]4(C)[C@@]3(F)[C@@H](O)C[C@@]21C [Flumethasone-21-palmitate-17-propionate],inhibition in vivo at 0.0335 µmol/kg,[1]; [3],108%
same,inhibition in vivo at 0.0335 µmol/kg,[1]; [4],43%
same,Body weight gain in rel. to control,[2]; [11],2.0
same,"% inhib. compared to control group, spleen",[2]; [11],-1%
CCCCCCCCCCCCCCCC(=O)OCC(=O)[C@@]12OC(C)(C)O[C@@H]1C[C@H]1[C@@H]3C[C@H](F)C4=CC(=O)C=C[C@]4(C)[C@H]3[C@@H](O)C[C@@]12C [Flunisolide-21-palmitate],inhibition in vivo at 0.0335 µmol/kg,[1]; [3],133%
same,inhibition in vivo at 0.0335 µmol/kg,[1]; [4],44%
same,Body weight gain in rel. to control,[2]; [11],-2.6
same,"% inhib. compared to control group, spleen",[2]; [11],8%
CCCCCCCCCCCCCCCC(=O)OCC(=O)[C@@]12OC(C)(C)O[C@@H]1C[C@H]1[C@@H]3C[C@H](F)C4=CC(=O)C=C[C@]4(C)[C@@]3(F)[C@@H](O)C[C@@]12C [Fluocinolone acetonide-21-palmitate],inhibition in vivo at 0.1 µmol/kg,[1]; [3],117%
same,inhibition in vivo at 0.1 µmol/kg,[1]; [4],95%
same,block of left lung edema (in words),[1],completely blocked the left lung edema
same,activity in the other lung half (in words),[1],as high activity in the other lung half
same,Body weight gain in rel. to control,[2]; [12],-4.8
same,"% inhib. compared to control group, spleen",[2]; [12],15%
same,reduction of body weight gain (in words),[2],significant reduction of body weight gain
same,reduction of spleen (in words),[2],significant reduction of body weight gain and to spleen
CCCCCCCCCCCCCCCC(=O)OCC(=O)[C@@]1(O)CC[C@H]2[C@@H]3CCC4=CC(=O)CC[C@]4(C)[C@H]3[C@@H](O)C[C@@]21C [Hydrocortisone-21-palmitate],inhibition in vivo at 0.335 µmol/kg,[1]; [9],-13%
same,inhibition in vivo at 0.335 µmol/kg,[1]; [10],-7%
same,reduction of edema in left lung / protection of left lung,[1],up to 38%
same,Body weight gain in rel. to control,[2]; [8],-1
